The values that follow come from patent US8658604B2, “Template-fixed beta-hairpin peptidomimetics with protease inhibitory activity” (Polyphor Ltd, priority 2005, dated 2014).

Like-named read-outs stand apart in the source and are kept apart here. Where a SMILES comes first, the peptide text is derived from it.

Data set [1] deals with T1, CathepsinG, from human neutrophils (Homo sapiens, UniProt P08311).
T1 sequence (P08311 21-244): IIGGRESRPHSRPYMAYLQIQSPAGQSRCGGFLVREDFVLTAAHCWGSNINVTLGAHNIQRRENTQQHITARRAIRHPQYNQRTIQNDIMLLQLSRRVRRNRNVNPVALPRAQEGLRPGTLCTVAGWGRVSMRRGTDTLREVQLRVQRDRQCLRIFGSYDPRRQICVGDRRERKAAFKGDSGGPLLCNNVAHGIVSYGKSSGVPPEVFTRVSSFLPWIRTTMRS
As to the kind of experiment: Enzymatic assay, cathepsin G. Conditions: Cathepsin G IC50.

The target of data set [2] is T2, Trypsin, from human pancreas (Homo sapiens, UniProt P07477).
Data set [3] has as its target T3, Elastase from human neutrophils (Homo sapiens, UniProt P08246).
T3 sequence (P08246 30-267): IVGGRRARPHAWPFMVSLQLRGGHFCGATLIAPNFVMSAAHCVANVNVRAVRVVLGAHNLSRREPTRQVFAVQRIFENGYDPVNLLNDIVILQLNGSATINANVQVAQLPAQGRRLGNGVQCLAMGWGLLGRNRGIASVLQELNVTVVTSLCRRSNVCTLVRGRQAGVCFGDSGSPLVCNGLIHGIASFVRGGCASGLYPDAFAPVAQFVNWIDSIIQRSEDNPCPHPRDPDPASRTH
Kind of data set: Enzymatic assay, elastase.

Data set [4] deals with T4, Chymase, from human skin (Homo sapiens, UniProt P23946).
T4 sequence (P23946 22-247): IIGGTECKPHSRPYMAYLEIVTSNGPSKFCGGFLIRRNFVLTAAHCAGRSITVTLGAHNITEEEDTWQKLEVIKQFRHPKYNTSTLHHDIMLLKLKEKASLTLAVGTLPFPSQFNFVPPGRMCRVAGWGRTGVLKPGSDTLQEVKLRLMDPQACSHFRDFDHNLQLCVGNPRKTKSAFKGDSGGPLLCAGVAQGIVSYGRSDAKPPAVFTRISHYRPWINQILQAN

Data set [5] concerns the target T5, Chymotrypsin, from human pancreas (Homo sapiens, UniProt P17538).
The target in data set [6] is T5, Chymotrypsin, from human pancreas. As to the kind of experiment: Enzymatic assay, chymotrypsin. Conditions: at 100 μM.
In data set [7] the target is T2, Trypsin, from human pancreas. As to the kind of experiment: Enzymatic assay, trypsin. Conditions: at 100 μM.
Data set [8] deals with Thrombin, from Human Plasma (Homo sapiens, UniProt P00734). As to the kind of experiment: Enzymatic assay, thrombin.
Data set [9] has as its target Coagulation Factor Xa, from uman plasma (Homo sapiens, UniProt P00742). Kind of data set: Enzymatic assay, coagulation factor Xa.
Data set [10] concerns Tryptase, from human lung. Kind of data set: Enzymatic assay, tryptase. Conditions: at 100 μM.
Data set [11] can be described thus: Pharmacokinetic study after single oral (gavage) and intravenous administration in rats. The conditions noted are these: rat. On the procedure: 2.6. Pharmacokinetic Study (PK)
Pharmacokinetic Study after Single Oral (Gavage) and Intravenous Administration in Rats
Blood samples (approx. 0.24 ml) were taken following the schedule below at different time points into heparinized tubes by automated blood sampling using the DiLab AccuSampler. When a problem occurred during automated blood sampling, blood was sampled by retro-orbital bleeding under light isoflurane anesthesia. Samples were taken at the following time points: 0, 5 min (only i.v.), 15, 30 min and 1, 2, 4, 8, 16, 24 and 36 (only p.o.) hours and added to heparinized tubes. Plasma was removed from pelleted cells upon centrifugation and frozen at −80° C. prior to HPLC-MS analysis.
Preparation of the Plasma Calibration Samples
“Blank” rat plasma from untreated animals was used. […] The OASIS® HLB cartridges were conditioned with 1 ml of methanol and then with 1 ml of 1% NH3 in water. Samples were then diluted with 400 μl of 1% NH3 in water and loaded. The plate was washed with 1 ml of methanol/1% NH3 in water 5/95. Elution was performed using 1 ml of 0.1% TFA in methanol.
The plate containing eluates was introduced into the concentrator system and taken to dryness. The residues were dissolved in 100 μl of formic acid 0.1%/acetonitrile, 95/5 (v/v) and analysed in the HPLC/MS on a reverse phase analytical column (Jupiter C18, 50×2.0 mm, 5 μm, Phenomenex), using gradient elution (mobile phases A: 0.1% formic acid in water, B: Acetonitrile; from 5% B to 100% B in 2 min.).
Preparation of Plasma Samples
From each sample 100 μl of plasma were taken for the extraction. If the volume was less than 100 μl the appropriate amount of “blank” mouse plasma was added in order to keep the matrix identical to the calibration curve. Samples were then spiked with IS and processed as described for the calibration curve.
Pharmacokinetic Evaluation
The area under the curve AUC was calculated by the linear trapezoidal rule. AUC(t-∞) was estimated as Ct/b (b: elimination rate constant). […] the sum of AUC(0-t) and AUC(t-∞). Elimination half-life was calculated by the linear regression on at least three data points during the elimination phase. The time intervals selected for the half-life determinations were evaluated by the correlation coefficient (r^2), which should be at least above 0.85 and most optimally above 0.96. In case of i.v. administration the initial concentration at tzero was determined by extrapolation of the curve through the first two time points.

Data set [12] concerns the target T4, Chymase, from human skin. As to the kind of experiment: Enzymatic assay, chymase.
The format of data set [13] is in vitro ADME. The conditions noted are these: 10 µM. On the procedure: 405 μl of plasma/albumin solution were placed in a polypropylene (PP) tube and spiked with 45 μl of compound from a […] solution B, derived from 135 μl of PBS and 15 μl of 1 mM peptide in PBS, pH 7.4. 150 μl aliquots were transferred into individual wells of the 10 kDa filter plate (Millipore MAPPB 1010 Biomax membrane). For “0 minutes controls”: 270 μl of PBS were placed in a PP tube and 30 μl of stock solution B was added and vortexed. 150 μl of control solution were placed into one well of the filter plate and served as “filtered control”.
Further 150 μl of control solution were placed directly into a receiver well (reserved for filtrate) and served as “not-filtered control”. The entire plate including evaporation lid was incubated for 60 min at 37° C. Plasma samples (rat plasma: Harlan Sera lab UK, human plasma: Blutspendezentrum Zürich) were centrifuged at least for 2 h at 4300 rpm (3500 g) and 15° C. in order to yield 100 filtrate. For “serum albumin”-samples (freshly prepared human albumin: Sigma A-4327, rat albumin: Sigma A-6272, all at 40 mg/ml concentration in PBS) approximately 1 hour of centrifugation was sufficient. The filtrates in the receiver PP plate were analysed by LC/MS as follower follows: Column: Jupiter C18 (Phenomenex), mobile phases: (A) 0.1% formic acid in water and (B) acetonitrile, gradient: 5%-100% (B) in 2 minutes, electrospray ionization, MRM detection (triple quadrupole). The peak areas were determined and triplicate values were averaged. The binding was expressed in percent of the (filtered and not-filtered time point 0 min) control 1 and 2 by: 100−(100×T60/T0). The average from these values was then calculated.

In data set [14] the target is Urokinase from human urine (Homo sapiens, UniProt P00749). As to the kind of experiment: Enzymatic assay, urokinase.

T5 sequence (P17538 19-263): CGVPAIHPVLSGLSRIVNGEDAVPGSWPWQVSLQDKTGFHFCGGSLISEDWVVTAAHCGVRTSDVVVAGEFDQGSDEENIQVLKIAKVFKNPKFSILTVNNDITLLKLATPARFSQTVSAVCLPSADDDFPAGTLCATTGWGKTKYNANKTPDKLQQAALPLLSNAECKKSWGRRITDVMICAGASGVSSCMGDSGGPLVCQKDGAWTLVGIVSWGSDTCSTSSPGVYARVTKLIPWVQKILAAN
Coagulation Factor Xa, from uman plasma, sequence (P00742 235-488 limits assumed): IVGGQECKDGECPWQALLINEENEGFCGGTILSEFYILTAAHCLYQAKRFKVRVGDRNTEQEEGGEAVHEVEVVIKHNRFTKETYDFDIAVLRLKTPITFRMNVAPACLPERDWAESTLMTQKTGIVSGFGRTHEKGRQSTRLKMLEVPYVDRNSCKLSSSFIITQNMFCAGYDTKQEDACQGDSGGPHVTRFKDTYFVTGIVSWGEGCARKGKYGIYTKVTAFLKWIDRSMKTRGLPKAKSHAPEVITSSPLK
Coagulation Factor Xa, from uman plasma, sequence (P00742 41-179 limits assumed): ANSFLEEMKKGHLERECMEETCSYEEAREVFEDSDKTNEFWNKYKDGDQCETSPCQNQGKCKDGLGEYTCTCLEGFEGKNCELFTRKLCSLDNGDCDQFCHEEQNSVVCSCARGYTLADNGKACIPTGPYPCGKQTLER

A word on the IC50: it is the concentration that gives 50% inhibition. Regarding `CC[C@H](C)[C@@H]1NC(=O)[C@@H]2CCCN2C(=O)[C@@H]2CCCN2C(=O)[C@H](CCC(=O)O)NC(=O)[C@H](CO)NC(=O)[C@H](CCCCN)NC(=O)[C@H]([C@@H](C)O)NC(=O)[C@@H]2CSSC[C@H](NC1=O)C(=O)N[C@@H](CO)C(=O)N1CCC[C@@H]1C(=O)N1CCC[C@H]1C(=O)N[C@@H](Cc1ccccc1)C(=O)N2` [Ex. 21] (HELM PEPTIDE1{F.C.T.K.S.E.P.P.I.C.S.[dP].P}$PEPTIDE1,PEPTIDE1,2:R3-10:R3|PEPTIDE1,PEPTIDE1,1:R1-13:R2$$$V2.0), the values for the IC50 in data set [1] and in data set [3] (Elastase IC50) were 97 nM and 16.4 nM, respectively. In data set [2], the “Trypsin at 100 μM %” value is on record as 95.6%. Besides, the “Chymase at 100 μM %” value in data set [4] is reported as 5%. Further, the “Chymotrypsin at 100 μM %” value in data set [5] is listed as 2.6%.
In general, half-life refers to the time in which the quantity being followed falls by half. A low value points to rapid decline. As usually defined, the Cmax is the maximum level reached in the sampled fluid or tissue. `CC[C@H](C)[C@@H]1NC(=O)[C@@H]2CCCN2C(=O)[C@@H]2CCCN2C(=O)[C@H](CC(=O)O)NC(=O)[C@H](CO)NC(=O)[C@H](CCCCN)NC(=O)[C@H]([C@@H](C)O)NC(=O)[C@@H]2CSSC[C@H](NC1=O)C(=O)N[C@@H](Cc1ccccc1)C(=O)N1CCC[C@@H]1C(=O)N1CCC[C@H]1C(=O)N[C@@H](CCCNC(=N)N)C(=O)N2` [Ex. 75] (HELM PEPTIDE1{R.C.T.K.S.D.P.P.I.C.F.[dP].P}$PEPTIDE1,PEPTIDE1,2:R3-10:R3|PEPTIDE1,PEPTIDE1,1:R1-13:R2$$$V2.0) showed an IC50 in [1] of 86 nM. For the same compound, the “Chymotrypsin at 100 μM %” value in data set [6] stood at 7.8 at 100 μM %. In addition, the “Trypsin at 100 μM %” value in data set [7] is listed as 92.6%. For the same compound, the “Thrombin at 100 μM %” value in data set [8] came out at 1.1%. For the same compound, in [3] (at 100 μM (stated in cell instead of IC50)), the “Elastase at 100 μM %” value was determined as 69.1 at %. Moreover, in [9], the “FXa at 100 μM %” value is 5.7%. Moreover, the “Tryptase at 100 μM %” value in [10] worked out at 0%. For the same compound, the half-life in [11] (male, Wistar, in vivo, iv, 5 mg/kg) is 0.5 h. In data set [11] (male, Wistar, iv, 5 mg/kg), this compound gave a level at 0.25 h of 5770 ng/mL, a level at 0.5 h of 3460 ng/mL and a level at 4 h of 18 ng/mL. The Cmax in data set [11] (male, Wistar, po) was determined as 46 ng/mL. Further, in [11] (male, Wistar, po, 50 mg/kg), the “Vd (apparent distribution volume)” value came out at 1.008 L/kg and the level at 4 h was 24 ng/mL. Also, the “apparent distribution volume after oral administration, fold higher than after i.v.” value in data set [11] is given as “about 1.8 fold”. Moreover, in [11] (5 mg/kg), the “% absorbed (F) (percentage of normalized AUC0-∞ po. against normalized AUC0-∞ i.v.)” value is on record as 100%. Moreover, the “% absorbed (F) (percentage of normalized AUC0-∞ po. against normalized AUC0-∞ i.v.)” value in [11] (50 mg/kg) worked out at 1.3%. In data set [11] (iv, 5 mg/kg), this compound showed a Cmax norm of 0.08 ng/mL and an initial distribution volume of 355 mL/kg. The same compound returned a Cmax norm in [11] (po, 50 mg/kg) of 0.25 ng/mL. For the same compound, the “Chymase at 100 μM %” value in [12] is 0%. In [13], the “Stability human Plasma t1/2” value turned out to be 5 h and the “Stability rat Plasma t1/2” value was 5 h. Moreover, the “Urokinase at 100 μM %” value in [14] is listed as 5.7%.
For `CCCC[C@@H]1NC(=O)[C@@H]2CCCN2C(=O)[C@@H](C)NC(=O)[C@H](Cc2ccc(O)cc2)NC(=O)[C@@H]2CSSC[C@H](NC1=O)C(=O)N[C@@H]([C@@H](C)O)C(=O)N[C@@H](C)C(=O)N[C@@H](CO)C(=O)N[C@@H]([C@@H](C)CC)C(=O)N1CCC[C@H]1C(=O)N1CCC[C@H]1C(=O)N[C@@H](CCC(N)=O)C(=O)N2` [Ex. 130] (HELM PEPTIDE1{[Nle].C.T.A.S.I.P.P.Q.C.Y.[dA].P}$PEPTIDE1,PEPTIDE1,2:R3-10:R3|PEPTIDE1,PEPTIDE1,1:R1-13:R2$$$V2.0), the 50% inhibitory concentration (IC50) in data set [3] (Elastase IC50) was 29 nM. For the same compound, the “Chymase at 100 μM %” value in data set [4] was <4000%.
`CCCC[C@@H]1NC(=O)[C@@H]2CCCN2C(=O)[C@H]2CCCN2C(=O)[C@H](CCC(N)=O)NC(=O)[C@@H]2CSSC[C@H](NC1=O)C(=O)N[C@@H]([C@@H](C)O)C(=O)N[C@@H](C)C(=O)N[C@@H](CO)C(=O)N[C@@H]([C@@H](C)CC)C(=O)N1CCC[C@H]1C(=O)N1CCC[C@H]1C(=O)N[C@@H](CCC(N)=O)C(=O)N2` [Ex. 131] (HELM PEPTIDE1{[Nle].C.T.A.S.I.P.P.Q.C.Q.[dP].P}$PEPTIDE1,PEPTIDE1,2:R3-10:R3|PEPTIDE1,PEPTIDE1,1:R1-13:R2$$$V2.0): the IC50 in data set [1] came to 45 nM; in data set [3] (read-out: Elastase IC50), 28 nM. The “Trypsin at 100 μM %” value in data set [2] turned out to be 0%.
